In article PMC6382819, “Design strategy for serine hydroxymethyltransferase probes based on retro-aldol-type reaction” (Nature Communications, 2019):
One block for each molecule: values may come before it.

Experiments:
[1] = biological target: T1, hSHMT1 (Homo sapiens, UniProt P34896); test: ITC; also DSF thermal shift and HPLC Ser-Gly conversion inhibition (IC50 […]); assay type: binding
T1 construct: gene SHMT1
T1 sequence (P34896 2-483): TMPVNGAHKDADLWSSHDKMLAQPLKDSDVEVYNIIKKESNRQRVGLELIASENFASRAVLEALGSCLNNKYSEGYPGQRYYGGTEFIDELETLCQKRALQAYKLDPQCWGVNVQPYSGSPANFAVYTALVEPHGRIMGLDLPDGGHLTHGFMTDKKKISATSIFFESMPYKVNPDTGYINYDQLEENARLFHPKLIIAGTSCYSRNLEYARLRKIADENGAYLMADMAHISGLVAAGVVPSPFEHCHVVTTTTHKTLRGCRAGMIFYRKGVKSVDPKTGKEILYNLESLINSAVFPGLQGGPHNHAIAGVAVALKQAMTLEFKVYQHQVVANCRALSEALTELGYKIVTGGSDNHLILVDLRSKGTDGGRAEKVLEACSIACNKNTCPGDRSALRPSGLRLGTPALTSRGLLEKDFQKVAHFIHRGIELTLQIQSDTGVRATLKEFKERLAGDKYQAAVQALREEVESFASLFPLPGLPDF

[2] = biological target: T1, hSHMT1; test: enzyme kinetics with recombinant hSHMT1 (UV absorption; […] NMR turnover); assay type: biochemical
[3] = biological target: T1, hSHMT1; test: enzyme kinetics with recombinant hSHMT1 (retro-aldol turnover, fluorescence); assay type: biochemical

Kd [1]: 2000 nM
SMILES: O=C(O)CCC(=O)Nc1ccc(-c2ccnc(-c3ccc(NC(=O)CCC(=O)O)cc3)n2)cc1 [Hit 1]

Km [2]: 2.75 ± 0.27 mM
SMILES: N[C@H](C(=O)O)[C@@H](O)c1ccc(F)cc1 [compound 2, 19F NMR probe 2]

Km [3]: 1.81 ± 0.19 mM
SMILES: CN(C)c1ccc2cc([C@H](O)[C@H](N)C(=O)O)ccc2c1 [compound 1, fluorescent probe 1]
